Test system: normal human lung fibroblasts
Assay: Ribosomal profiling: translational efficiency in TGFβ-treated fibroblasts
Format: cell-based
Details: TGFβ-treated fibroblasts
Method in brief: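 Cells lysed on ice after a cold PBS wash containing cycloheximide. Ribosome-protected fragments and total mRNA were prepared with the ARTseq kit and sequenced by RNA-Seq. Reads were trimmed, mapped to the human genome and counted uniquely over coding regions per gene, with low-count genes excluded before differential translational-efficiency analysis.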

## CC(C)n1nc(-c2cc3cc(O)ccc3[nH]2)c2c(N)ncnc21 [PP242]
Gene RPS6KA5 (ENSG00000100784)
  effect in renormalizing the translational profile of the gene: + (+ = 0.9 to 1.5)
Gene RPS7 (ENSG00000171863)
  effect in renormalizing the translational profile of the gene: − (− = <0.9)
Gene RPS8 (ENSG00000142937)
  effect in renormalizing the translational profile of the gene: − (− = <0.9)
Gene RPS9 (ENSG00000170889)
  effect in renormalizing the translational profile of the gene: − (− = <0.9)
Gene RPS10 (ENSG00000124614)
  effect in renormalizing the translational profile of the gene: − (− = <0.9)
Gene RPS11 (ENSG00000142534)
  effect in renormalizing the translational profile of the gene: − (− = <0.9)
Gene RPS12 (ENSG00000112306)
  effect in renormalizing the translational profile of the gene: − (− = <0.9)
Gene RPS13 (ENSG00000110700)
  effect in renormalizing the translational profile of the gene: − (− = <0.9)
Gene RPS14 (ENSG00000164587)
  effect in renormalizing the translational profile of the gene: − (− = <0.9)
Gene RPS15 (ENSG00000115268)
  effect in renormalizing the translational profile of the gene: + (+ = 0.9 to 1.5)
Gene RPS15A (ENSG00000134419)
  effect in renormalizing the translational profile of the gene: + (+ = 0.9 to 1.5)
Gene RPS16 (ENSG00000105193)
  effect in renormalizing the translational profile of the gene: − (− = <0.9)
Gene RPS18 (ENSG00000231500)
  effect in renormalizing the translational profile of the gene: + (+ = 0.9 to 1.5)
Gene RPS19 (ENSG00000105372)
  effect in renormalizing the translational profile of the gene: − (− = <0.9)
Gene RPS20 (ENSG00000008988)
  effect in renormalizing the translational profile of the gene: − (− = <0.9)
Gene RPS21 (ENSG00000171858)
  effect in renormalizing the translational profile of the gene: − (− = <0.9)
Gene RPS23 (ENSG00000186468)
  effect in renormalizing the translational profile of the gene: − (− = <0.9)
Gene RPS24 (ENSG00000138326)
  effect in renormalizing the translational profile of the gene: − (− = <0.9)
Gene RPS25 (ENSG00000118181)
  effect in renormalizing the translational profile of the gene: − (− = <0.9)
Gene RPS26 (ENSG00000197728)
  effect in renormalizing the translational profile of the gene: − (− = <0.9)
Gene RPS27 (ENSG00000177954)
  effect in renormalizing the translational profile of the gene: − (− = <0.9)
Gene RPS27A (ENSG00000143947)
  effect in renormalizing the translational profile of the gene: − (− = <0.9)
Gene RPS28 (ENSG00000233927)
  effect in renormalizing the translational profile of the gene: + (+ = 0.9 to 1.5)
Gene RPS29 (ENSG00000213741)
  effect in renormalizing the translational profile of the gene: + (+ = 0.9 to 1.5)
Gene RPSA (ENSG00000168028)
  effect in renormalizing the translational profile of the gene: − (− = <0.9)
Gene RTN2 (ENSG00000125744)
  effect in renormalizing the translational profile of the gene: − (− = <0.9)
Gene SEMA3A (ENSG00000075213)
  effect in renormalizing the translational profile of the gene: − (− = <0.9)
Gene SGIP1 (ENSG00000118473)
  effect in renormalizing the translational profile of the gene: − (− = <0.9)
Gene SH3BGR (ENSG00000185437)
  effect in renormalizing the translational profile of the gene: − (− = <0.9)
Gene SHC3 (ENSG00000148082)
  effect in renormalizing the translational profile of the gene: − (− = <0.9)
Gene SLC2A12 (ENSG00000146411)
  effect in renormalizing the translational profile of the gene: − (− = <0.9)
Gene SLC7A7 (ENSG00000155465)
  effect in renormalizing the translational profile of the gene: − (− = <0.9)
Gene SLC15A3 (ENSG00000110446)
  effect in renormalizing the translational profile of the gene: − (− = <0.9)
Gene SLC25A6 (ENSG00000169100)
  effect in renormalizing the translational profile of the gene: − (− = <0.9)
Gene SLC40A1 (ENSG00000138449)
  effect in renormalizing the translational profile of the gene: − (− = <0.9)
Gene SMO (ENSG00000128602)
  effect in renormalizing the translational profile of the gene: − (− = <0.9)
Gene SNRPA (ENSG00000077312)
  effect in renormalizing the translational profile of the gene: − (− = <0.9)
Gene SOX5 (ENSG00000134532)
  effect in renormalizing the translational profile of the gene: − (− = <0.9)
Gene SOX6 (ENSG00000110693)
  effect in renormalizing the translational profile of the gene: − (− = <0.9)
Gene SPATA6 (ENSG00000132122)
  effect in renormalizing the translational profile of the gene: + (+ = 0.9 to 1.5)
Gene STAMBPL1 (ENSG00000138134)
  effect in renormalizing the translational profile of the gene: − (− = <0.9)
Gene STS (ENSG00000101846)
  effect in renormalizing the translational profile of the gene: − (− = <0.9)
Gene SYNE2 (ENSG00000054654)
  effect in renormalizing the translational profile of the gene: − (− = <0.9)
Gene TAF1D (ENSG00000166012)
  effect in renormalizing the translational profile of the gene: − (− = <0.9)
Gene TDG (ENSG00000139372)
  effect in renormalizing the translational profile of the gene: − (− = <0.9)
Gene TEN1 (ENSG00000257949)
  effect in renormalizing the translational profile of the gene: − (− = <0.9)
Gene TET2 (ENSG00000168769)
  effect in renormalizing the translational profile of the gene: − (− = <0.9)
Gene TET3 (ENSG00000187605)
  effect in renormalizing the translational profile of the gene: − (− = <0.9)
Gene TGFBI (ENSG00000120708)
  effect in renormalizing the translational profile of the gene: − (− = <0.9)
Gene THBS3 (ENSG00000169231)
  effect in renormalizing the translational profile of the gene: + (+ = 0.9 to 1.5)
Gene THG1L (ENSG00000113272)
  effect in renormalizing the translational profile of the gene: − (− = <0.9)
Gene TIMM9 (ENSG00000100575)
  effect in renormalizing the translational profile of the gene: − (− = <0.9)
Gene TKT (ENSG00000163931)
  effect in renormalizing the translational profile of the gene: − (− = <0.9)
Gene TMTC1 (ENSG00000133687)
  effect in renormalizing the translational profile of the gene: − (− = <0.9)
Gene TOMM7 (ENSG00000196683)
  effect in renormalizing the translational profile of the gene: − (− = <0.9)
Gene TOP2A (ENSG00000131747)
  effect in renormalizing the translational profile of the gene: − (− = <0.9)
Gene TPGS1 (ENSG00000141933)
  effect in renormalizing the translational profile of the gene: − (− = <0.9)
Gene TPM2 (ENSG00000198467)
  effect in renormalizing the translational profile of the gene: − (− = <0.9)
Gene TPT1 (ENSG00000133112)
  effect in renormalizing the translational profile of the gene: − (− = <0.9)
Gene TRERF1 (ENSG00000124496)
  effect in renormalizing the translational profile of the gene: − (− = <0.9)
Gene UBA52 (ENSG00000221983)
  effect in renormalizing the translational profile of the gene: − (− = <0.9)
Gene UQCRB (ENSG00000156467)
  effect in renormalizing the translational profile of the gene: − (− = <0.9)
Gene UTRN (ENSG00000152818)
  effect in renormalizing the translational profile of the gene: − (− = <0.9)
Gene VIM (ENSG00000026025)
  effect in renormalizing the translational profile of the gene: − (− = <0.9)
Gene ZNF581 (ENSG00000171425)
  effect in renormalizing the translational profile of the gene: − (− = <0.9)
Gene ZNF608 (ENSG00000168916)
  effect in renormalizing the translational profile of the gene: − (− = <0.9)
